These results are taken from publication PMC9964746, “Mechanism of Action and Structure–Activity Relationships of Tetracyclic Small Molecules Acting as Universal Positive Allosteric Modulators of the Cholecystokinin Receptor” (Membranes, 2023).

What all share (assay type): cell-based
The target in assay [1] is T1, vasopressin-2 receptor (AVP2R) (Homo sapiens, UniProt P30518).
T1 construct: expressed in transfected cells; host or cells: CHO-K1 (PAM format); HEK-293 (agonist format)
Briefly: AVP2R cAMP HTRF accumulation assay. The note with it: CHO-K1 AVP2R cells; for AVP2R PAM (cAMP) Score (activity score = normalized Emax × pEC50): PAM format; for Emax / EC50: PAM format with vasopressin, original hits: agonist and PAM data combined, average ± SD. The procedure:
Possible off-target biological effects. […] Here, we tested them at the vasopressin-2 receptor (AVP2R), representing a class A GPCR structurally related to CCK1R, which is coupled to Gs. The activity at AVP2R was tested using AVP2R-overexpressing CHO-K1 (PAM format) or HEK-293 (agonist format) cells, stimulating the cells with vasopressin. Original hits were tested in both agonist and PAM formats. Since all recognized compound responses were present in both formats, we continued to screen analogs in only the PAM format (also able to capture agonist effects) in CHO-K1 AVP2R cells for potential enhanced sensitivity. The dose–response data sets for original hits were combined, as the PAM and agonist effects were indistinguishable. In brief, arginine vasopressin (AVP) orthosteric stimulator dilutions and ligand and compound dose–response titrations in DMSO were transferred onto a 1536-well plate (Corning #3725) using an Echo liquid handler (Labcyte). Thawed cryopreserved cell stocks were diluted in stimulation buffer consisting of HBSS (Hank’s Balanced Salt Solution with Ca^2+ and Mg^2+, Gibco #24020117), 5 mM HEPES (hydroxyethyl piperazineethanesulfonic acid), 0.5 mM IBMX (3-isobutyl-1-methylxanthine, Sigma-Aldrich), and 0.075% BSA (7.5% DTPA-purified bovine serum albumin, PerkinElmer). The resulting cell suspension was added to the microplate and incubated with test compounds at room temperature for 30 min. Then, the detection reagents from the Cisbio cAMP Gs Dynamic HTRF detection kit were added. The plate was kept at room temperature for 30 min and read on a PHERAstar FSX microplate reader. Dose–response curves were performed as 16-point 2-fold dilutions in duplicate in at least two independent experiments.

The target of assay [2] is T2, CCK1R (Homo sapiens, UniProt P32238).
T2 sequence (P32238 1-428): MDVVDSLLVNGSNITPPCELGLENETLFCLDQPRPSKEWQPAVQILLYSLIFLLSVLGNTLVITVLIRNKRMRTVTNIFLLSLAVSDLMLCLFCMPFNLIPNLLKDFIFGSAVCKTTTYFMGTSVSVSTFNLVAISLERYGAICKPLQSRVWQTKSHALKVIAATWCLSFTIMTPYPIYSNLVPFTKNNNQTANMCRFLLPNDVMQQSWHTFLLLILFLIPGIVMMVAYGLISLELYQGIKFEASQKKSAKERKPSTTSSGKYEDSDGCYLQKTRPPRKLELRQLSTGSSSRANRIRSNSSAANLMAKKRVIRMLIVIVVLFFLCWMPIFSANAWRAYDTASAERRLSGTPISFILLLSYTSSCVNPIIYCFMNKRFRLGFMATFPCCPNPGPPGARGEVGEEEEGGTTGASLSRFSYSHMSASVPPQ
As to the kind of experiment: IP-One accumulation TR-FRET assay, agonist format, HEK-293 CCK1R cells. The note with it: for Emax: HEK293, relative to CCK control, average ± SD, read-out: CCK1R Ago (IP-One) Emax. Set-up: expressed in transfected cells; host or cells: HEK-293. The procedure:
(§1) For structure–activity relationship studies, we performed myo-inositol-1-phosphate (IP-One) accumulation assays with TR-FRET technology applied to the HEK-293 cell line overexpressing CCK1Rs, as we had described in our high throughput screening effort. In brief, thawed cryopreserved cell stocks were re-suspended in IP-One assay media consisting of phenol-red free DMEM (Corning, Corning, NY, USA, #17-205-CV) with 10% FBS, 1% penicillin (10,000 units)/streptomycin (10 mg) (Pen/Strep, Thermo Fisher Scientific, Waltham, MA, USA, Gibco #15140122), and 1% L-glutamine (200 mM) (Gibco #25030081) and diluted to required cell densities. Then, the cell suspension was dispensed into a 1536-well tissue culture microplate (Corning, #3727), and the plate was incubated overnight at 37 °C and 5% CO^2. After 16–20 h, DMSO or compounds were added with an Echo liquid handler (Labcyte, San Jose, CA, USA), resulting in a top final compound concentration of 50 µM diluted 2-fold for 16-point dose–responses. For the positive allosteric modulator (PAM) format, orthosteric stimulator (CCK) dilutions for control wells were prepared in assay media containing 150 mM lithium chloride (LiCl, 50 mM final, Sigma-Aldrich, St Louis, MO, USA, #L7026). After a 30 min incubation of test compounds at 37 °C and 5% CO2, orthosteric stimulator dilutions (for PAM format) or equivalent dilutions of DMSO (for agonist format) were added to designated wells using BioRaptr (Beckman Coulter, Brea, CA, USA). In addition, CCK control ligand dilutions were included on each test plate. After that, the plate was incubated for 1 h at 37 °C and 5% CO^2 and equilibrated to room temperature. Detection reagents from the IP-One Gq detection kit from Cisbio (Cisbio US Inc., Bedford, MA, USA, #62IPAPEJ) were added, and after 1 h at RT, IP-One content was measured with a PHERAstar FSX microplate reader (BMG Labtech, Ortenberg, Germany). Control ligand dose–responses were analyzed using GraphPad Prism 9.3.1 (San Diego, CA, USA) to validate adequate control and test well concentrations for positive allosteric modulation (PAM) and agonist formats. Dose–response curves were performed as 16-point 2-fold dilutions in duplicates in at least three independent experiments. Large data sets were uploaded and analyzed with CBIS (Chemical and Biology Information System software, ChemInnovation Software, Inc., San Diego, CA, USA). Further data analysis for detailed SAR studies was conducted using the D360 software (Certara).
(§2) The potency and efficacy data for these compounds were used to calculate their activity scores using the following formula: Activity Score = normalized Emax × pEC50. Normalized Emax represents the efficacy of the compound as a fractional response relative to that of the CCK control ligand. pEC50 represents the positive logarithmic value of compound EC50 concentrations in (M).
On the technique in general: In TR-FRET formats the signal depends on donor and acceptor labels being close together.

The target in assay [3] is T2, CCK1R. Briefly: IP-One accumulation TR-FRET assay, PAM format, HEK-293 CCK1R cells. Also on record: expressed in transfected cells; host or cells: HEK-293. The note with it: HEK-293 CCK1R cells; for Emax: HEK293, relative to CCK control; for Emax / CCK1R PAM (IP-One) Score (activity score = normalized Emax × pEC50): PAM format; for Emax / EC50: average ± SD; for EC50: PAM format with EC20 CCK. The method, then:
as §1, §2

“And” between values parts separate entries of the source, which are not always exact repeats. Identical values can stand only once.

T1 sequence (P30518 whole entry): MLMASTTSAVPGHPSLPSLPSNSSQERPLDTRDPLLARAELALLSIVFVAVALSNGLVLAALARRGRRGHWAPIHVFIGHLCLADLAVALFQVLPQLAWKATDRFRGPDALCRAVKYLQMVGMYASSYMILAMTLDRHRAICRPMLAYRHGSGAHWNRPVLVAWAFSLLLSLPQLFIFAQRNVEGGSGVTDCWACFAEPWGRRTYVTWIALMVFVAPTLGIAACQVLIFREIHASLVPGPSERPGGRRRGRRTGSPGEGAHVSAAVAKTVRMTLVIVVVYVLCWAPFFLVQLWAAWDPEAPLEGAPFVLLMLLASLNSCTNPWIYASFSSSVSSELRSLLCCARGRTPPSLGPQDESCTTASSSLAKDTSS

By Emax is commonly meant the maximal effect, on the per cent scale that the assay sets. For the compound `CC(C)c1nc2oc3c(N4CCC(Cc5ccccc5)CC4)ncnc3c2c2c1CCC2` [CMP-63], in assay [1], the “AVP2R PAM (cAMP) Score (activity score = normalized Emax × pEC50)” value is 0 and the Emax turned out to be 0%. Also, in assay [2], the “CCK1R Ago (IP-One) Score (activity score = normalized Emax × pEC50)” value came out at 0 and the Emax is 0%.

A word on the EC50: it is the concentration giving half of the maximal effect. In the case of `c1nc(N2CCNCC2)c2sc3nc(N4CCOCC4)c4c(c3c2n1)CCCC4` [CMP-3], in assay [1], the “AVP2R PAM (cAMP) Score (activity score = normalized Emax × pEC50)” value was 1.6 and 1.64; the EC50 was determined as 14.8 ± 10.3 µM; the maximum response (Emax) amounted to 34 ± 5.3%. For the same compound, in assay [3], the Emax was 60 ± 23%; the “CCK1R PAM (IP-One) Score (activity score = normalized Emax × pEC50)” value is 2.8 and 2.77; a half-maximal response (EC50) required 16.6 ± 15.9 µM.

As for `COc1ccc(CCNc2ncnc3c2oc2nc(C(C)C)c4c(c23)CCC4)cc1OC` [CMP-62], in assay [1], the “AVP2R PAM (cAMP) Score (activity score = normalized Emax × pEC50)” value is 0 and the Emax was 0%. Further, in assay [2], the “CCK1R Ago (IP-One) Score (activity score = normalized Emax × pEC50)” value was 0 and the Emax amounted to 0%.

In the case of `Cc1nc2sc3c(NCCN4CCOCC4)ncnc3c2c2c1CCCC2` [CMP-61], the “AVP2R PAM (cAMP) Score (activity score = normalized Emax × pEC50)” value in assay [1] was found to be 0. In assay [2], the “CCK1R Ago (IP-One) Score (activity score = normalized Emax × pEC50)” value came to 0.

On to `c1ccc(-c2nc3sc4c(NCCN5CCOCC5)ncnc4c3c3c2CCCC3)cc1` [CMP-26], for which, in assay [1], the “AVP2R PAM (cAMP) Score (activity score = normalized Emax × pEC50)” value is 0.9 and 0.87; the EC50 was determined as 3.7 ± 0.5 µM; the Emax was determined as 16 ± 4%. Also, in assay [3], the Emax was 41 ± 15%; the “CCK1R PAM (IP-One) Score (activity score = normalized Emax × pEC50)” value is 1.8 and 1.76; the EC50 worked out at 30.2 ± 11.2 µM.

With `CN(C)CCCNc1nnnc2c1sc1nc(N3CCOCC3)c3c(c12)CCCC3` [CMP-17], in assay [1], the “AVP2R PAM (cAMP) Score (activity score = normalized Emax × pEC50)” value was 1.2, the EC50 turned out to be 22.4 ± 9.2 µM and the maximal response (Emax) came out at 26 ± 1%. Also, in assay [3], the maximum response (Emax) was found to be 50 ± 32%; the “CCK1R PAM (IP-One) Score (activity score = normalized Emax × pEC50)” value was 2.0 and 1.99; a half-maximal response (EC50) required 23 ± 17.9 µM.

Regarding `CCCc1nc2oc3c(N4CCNCC4)ncnc3c2c2c1CCCC2` [CMP-12], in assay [1], the “AVP2R PAM (cAMP) Score (activity score = normalized Emax × pEC50)” value was 3.3 and 3.28; the EC50 was 11.4 ± 3.6 µM; the maximum response (Emax) was 66 ± 3%. In assay [3], the maximal effect (Emax) was determined as 46 ± 7%; the “CCK1R PAM (IP-One) Score (activity score = normalized Emax × pEC50)” value is 2.2 and 2.23; the EC50 was 14.1 ± 4.3 µM.

Turning to `CCN(CC)CCCNc1ncnc2c1oc1nc(CC(C)C)c3c(c12)CCC3` [CMP-10], in assay [1], the “AVP2R PAM (cAMP) Score (activity score = normalized Emax × pEC50)” value was 2.2 and 2.15; the EC50 was determined as 21.7 ± 11.3 µM; the Emax was found to be 46 ± 9%. In addition, in assay [3], the Emax was found to be 51 ± 16%; the “CCK1R PAM (IP-One) Score (activity score = normalized Emax × pEC50)” value was 2.3 and 2.28; the midpoint of the response, the EC50, lay at 22.5 ± 9 µM.

Regarding `CC(C)c1nc2sc3c(NCCN4CCOCC4)ncnc3c2c2c1CCCC2` [CMP-54], in assay [1], the “AVP2R PAM (cAMP) Score (activity score = normalized Emax × pEC50)” value was 2.0 and 1.96; the concentration giving a half-maximal response (EC50) stood at 26.2 ± 2.4 µM; the Emax was found to be 43 ± 7%. Further, the “CCK1R Ago (IP-One) Score (activity score = normalized Emax × pEC50)” value in assay [2] is recorded as 0.

Regarding `CCCc1nc2oc3c(NCc4ccncc4)ncnc3c2c2c1CCCC2` [CMP-60], in assay [1], the “AVP2R PAM (cAMP) Score (activity score = normalized Emax × pEC50)” value came out at 0 and the Emax was 0%. In addition, in assay [2], the “CCK1R Ago (IP-One) Score (activity score = normalized Emax × pEC50)” value came out at 0 and the Emax was 0%.

For the compound `CC(C)Cc1nc2oc3c(NCCN(C)C)ncnc3c2c2c1CCCC2` [CMP-25], in assay [1], the EC50 is 8.6 ± 5.4 µM and the Emax stood at 74 ± 12%. Also, in assay [3], the Emax came out at 38 ± 11%, the “CCK1R PAM (IP-One) Score (activity score = normalized Emax × pEC50)” value amounted to 1.79 and the EC50 is 14.5 ± 5.3 µM.

Take `CCCCc1nc2sc3c(NCCCO)ncnc3c2c2c1CCC2` [CMP-5]: in assay [1], the “AVP2R PAM (cAMP) Score (activity score = normalized Emax × pEC50)” value is 1.6 and 1.61; the EC50 came to 8.1 ± 8.5 µM; the maximal effect (Emax) is 32 ± 11%. Further, in assay [3], the Emax amounted to 53 ± 6%; the “CCK1R PAM (IP-One) Score (activity score = normalized Emax × pEC50)” value was 2.7 and 2.66; the EC50 was 7.5 ± 2.9 µM.
